Data: ChEMBL document CHEMBL4004878, “Design, synthesis and structure-bactericidal activity relationships of novel 9-oxime ketolides and reductive epimers of acylides” (2017)
≈ marks a conversion by molar mass, not a printed value.

Experiments:
Assay type in all cases: functional
Streptococcus pneumoniae [1] = assay: Bacteriostatic activity against […] Streptococcus pneumoniae ATCC 49619 after 20 to 24 hrs by two-fold microbroth dilution method
Streptococcus pneumoniae [2] = assay: Bactericidal activity against […] Streptococcus pneumoniae ATCC 49619 incubated for 20 to 24 hrs followed by sub-culturing for 24 hrs in absence of compound
Streptococcus pneumoniae [3] = assay: Bacteriostatic activity against penicillin-susceptible Streptococcus pneumoniae PU09 after 20 to 24 hrs by two-fold microbroth dilution method
Streptococcus pneumoniae [4] = assay: Bactericidal activity against penicillin-susceptible Streptococcus pneumoniae PU09 incubated for 20 to 24 hrs followed by sub-culturing for 24 hrs in absence of compound
Streptococcus pneumoniae [5] = assay: Ratio of MBC to MIC for penicillin-susceptible Streptococcus pneumoniae PU09
Streptococcus pyogenes [6] = assay: Bacteriostatic activity against Streptococcus pyogenes 01-968 expressing inducible ermA after 20 to 24 hrs by two-fold microbroth dilution method
Streptococcus pyogenes [7] = assay: Bactericidal activity against Streptococcus pyogenes 01-968 expressing inducible ermA incubated for 20 to 24 hrs followed by sub-culturing for 24 hrs in absence of compound
Streptococcus pyogenes [8] = assay: Ratio of MBC to MIC for Streptococcus pyogenes 01-968 expressing inducible ermA
Haemophilus influenzae [9] = assay: Bacteriostatic activity against azithromycin-susceptible/ampicillin-resistant Haemophilus influenzae 11P307 after 20 to 24 hrs by two-fold microbroth dilution method
Haemophilus influenzae [10] = assay: Bactericidal activity against azithromycin susceptible/ampicillin-resistant Haemophilus influenzae 11P307 incubated for 20 to 24 hrs followed by sub-culturing for 24 hrs in absence of compound
Haemophilus influenzae [11] = assay: Ratio of MBC to MIC for azithromycin susceptible/ampicillin-resistant Haemophilus influenzae 11P307
Staphylococcus aureus [12] = assay: Bacteriostatic activity against methicillin-resistant Staphylococcus aureus PU20 expressing constitutive ermC after 20 hrs by two-fold microbroth dilution method; details: PU20, 20 h
Staphylococcus aureus [13] = assay: Bactericidal activity against methicillin-resistant Staphylococcus aureus PU20 expressing constitutive ermC incubated for 20 hrs followed by sub-culturing for 24 hrs in absence of compound
Staphylococcus aureus [14] = assay: Bacteriostatic activity against methicillin-resistant Staphylococcus aureus PU32 expressing inducible ermA after 20 hrs by two-fold microbroth dilution method; details: PU32, 20 h
Staphylococcus aureus [15] = assay: Bactericidal activity against methicillin-resistant Staphylococcus aureus PU32 expressing inducible ermA incubated for 20 hrs followed by sub-culturing for 24 hrs in absence of compound
Staphylococcus aureus [16] = assay: Ratio of MBC to MIC against methicillin-resistant Staphylococcus aureus PU32 expressing inducible ermA
Moraxella catarrhalis [17] = assay: Bacteriostatic activity against erythromycin-susceptible Moraxella catarrhalis 13L332 after 20 hrs by two-fold microbroth dilution method; details: 13L332, 20 h
Moraxella catarrhalis [18] = assay: Bactericidal activity against erythromycin-susceptible Moraxella catarrhalis 13L332 incubated for 20 hrs followed by sub-culturing for 24 hrs in absence of compound
Moraxella catarrhalis [19] = assay: Ratio of MBC to MIC against erythromycin-susceptible Moraxella catarrhalis 13L332
Haemophilus influenzae [20] = assay: Bacteriostatic activity against azithromycin-susceptible Haemophilus influenzae ATCC 49247 after 20 to 24 hrs by two-fold microbroth dilution method
Haemophilus influenzae [21] = assay: Bactericidal activity against azithromycin-susceptible Haemophilus influenzae ATCC 49247 incubated for 20 to 24 hrs followed by sub-culturing for 24 hrs in absence of compound
Haemophilus influenzae [22] = assay: Ratio of MBC to MIC against azithromycin-susceptible Haemophilus influenzae ATCC 49247
Streptococcus pyogenes [23] = assay: Bacteriostatic activity against Streptococcus pyogenes 12-207 expressing mef after 20 to 24 hrs by two-fold microbroth dilution method
Streptococcus pyogenes [24] = assay: Bactericidal activity against Streptococcus pyogenes 12-207 expressing mef incubated for 20 to 24 hrs followed by sub-culturing for 24 hrs in absence of compound
Streptococcus pyogenes [25] = assay: Ratio of MBC to MIC for Streptococcus pyogenes 12-207 expressing mef
Moraxella catarrhalis [26] = assay: Bacteriostatic activity against erythromycin-susceptible Moraxella catarrhalis 11B366 after 20 hrs by two-fold microbroth dilution method; details: 11B366, 20 h
Moraxella catarrhalis [27] = assay: Bactericidal activity against erythromycin-susceptible Moraxella catarrhalis 11B366 incubated for 20 hrs followed by sub-culturing for 24 hrs in absence of compound
Moraxella catarrhalis [28] = assay: Ratio of MBC to MIC against erythromycin-susceptible Moraxella catarrhalis 11B366
Streptococcus pneumoniae [29] = assay: Ratio of MBC to MIC for […] Streptococcus pneumoniae ATCC 49619
Staphylococcus aureus [30] = assay: Ratio of MBC to MIC for methicillin-resistant Staphylococcus aureus PU20 expressing constitutive ermC

SMILES | MIC (Streptococcus pneumoniae [1]) [µg/mL] | MBC (Streptococcus pneumoniae [2]) [µg/mL] | MIC (Streptococcus pneumoniae [3]) [µg/mL] | MBC (Streptococcus pneumoniae [4]) [µg/mL] | Ratio (Streptococcus pneumoniae [5]) | MIC (Streptococcus pyogenes [6]) [µg/mL] | MBC (Streptococcus pyogenes [7]) [µg/mL] | Ratio (Streptococcus pyogenes [8]) | MIC (Haemophilus influenzae [9]) [µg/mL] | MBC (Haemophilus influenzae [10]) [µg/mL] | Ratio (Haemophilus influenzae [11]) | MIC (Staphylococcus aureus [12]) [µg/mL] | MBC (Staphylococcus aureus [13]) [µg/mL] | MIC (Staphylococcus aureus [14]) [µg/mL] | MBC (Staphylococcus aureus [15]) [µg/mL] | Ratio (Staphylococcus aureus [16]) | MIC (Moraxella catarrhalis [17]) [µg/mL] | MIC (Haemophilus influenzae [20]) [µg/mL] | MBC (Haemophilus influenzae [21]) [µg/mL] | Ratio (Haemophilus influenzae [22]) | other results
CC[C@H]1OC(=O)[C@@](C)(F)C(=O)[C@H](C)[C@@H](O[C@@H]2O[C@H](C)C[C@H](N(C)C)[C@H]2O)[C@](C)(OC)C[C@@H](C)/C(=N\OC/C=C/c2cncc(N)c2)[C@H](C)[C@H]2OC(=O)O[C@@]21C | 0.125 (≈ 0.16 µM) | 0.25 (≈ 0.321 µM) | 0.5 (≈ 0.642 µM) | 1 (≈ 1.28 µM) | 2 | 0.062 (≈ 0.0796 µM) | > 0.5 | >8 | 16 (≈ 20.5 µM) | 32 (≈ 41.1 µM) | 2 | > 256 | > 256 | 0.5 (≈ 0.642 µM) | > 4 | >8 | 0.031 (≈ 0.0398 µM) | 32 (≈ 41.1 µM) | 32 (≈ 41.1 µM) | 1 | MBC (Moraxella catarrhalis [18]): > 0.25 µg/mL; Ratio (Moraxella catarrhalis [19]): >8
CC[C@H]1OC(=O)[C@H](C)[C@@H](O[C@H]2C[C@@](C)(OC)[C@@H](O)[C@H](C)O2)[C@H](C)[C@@H](O[C@@H]2O[C@H](C)C[C@H](N(C)C)[C@H]2O)[C@](C)(OC)C[C@@H](C)C(=O)[C@H](C)[C@@H](O)[C@]1(C)O [CLARITHROMYCIN] | 0.031 to 0.062 (≈ 0.0414 to 0.0829 µM) | 0.062 to 0.125 (≈ 0.0829 to 0.167 µM) | 4 (≈ 5.35 µM) | 8 (≈ 10.7 µM) | 2 | 1 (≈ 1.34 µM) | > 8 | >8 | 1 to 8 (≈ 1.34 to 10.7 µM) | 8 to 16 (≈ 10.7 to 21.4 µM) | 2 - 8 | > 256 | > 256 | 8 to 32 (≈ 10.7 to 42.8 µM) | 16 to 256 (≈ 21.4 to 342 µM) | >2 - 8 | 0.031 (≈ 0.0414 µM) | 16 (≈ 21.4 µM) | 32 (≈ 42.8 µM) | 2 | MIC (Streptococcus pyogenes [23]): 16 µg/mL (≈ 21.4 µM); MBC (Streptococcus pyogenes [24]): 32 µg/mL (≈ 42.8 µM); Ratio (Streptococcus pyogenes [25]): 2; MIC (Moraxella catarrhalis [26]): 0.125 µg/mL (≈ 0.167 µM); MBC (Moraxella catarrhalis [27]): 0.25 µg/mL (≈ 0.334 µM); Ratio (Moraxella catarrhalis [28]): 2; MBC (Moraxella catarrhalis [18]): 0.125 µg/mL (≈ 0.167 µM); Ratio (Moraxella catarrhalis [19]): 4
CC[C@H]1OC(=O)[C@@](C)(F)C(=O)[C@H](C)[C@@H](O[C@@H]2O[C@H](C)C[C@H](N(C)C)[C@H]2O)[C@](C)(OC)C[C@@H](C)/C(=N\OC/C=C/c2ccc3ncccc3c2)[C@H](C)[C@H]2OC(=O)O[C@@]21C | ≤ 0.008 | 0.016 (≈ 0.0197 µM) | 0.5 (≈ 0.614 µM) | 1 (≈ 1.23 µM) | 2 | 0.25 (≈ 0.307 µM) | 1 (≈ 1.23 µM) | 4 | 8 (≈ 9.83 µM) | > 64 | >8 | 32 (≈ 39.3 µM) | 64 (≈ 78.6 µM) | 1 (≈ 1.23 µM) | > 8 | >8 | – | – | – | – | Ratio (Streptococcus pneumoniae [29]): >=2; MIC (Streptococcus pyogenes [23]): 0.062 µg/mL (≈ 0.0762 µM); MBC (Streptococcus pyogenes [24]): > 0.5 µg/mL; Ratio (Streptococcus pyogenes [25]): >8; Ratio (Staphylococcus aureus [30]): 2; MIC (Moraxella catarrhalis [26]): 2 µg/mL (≈ 2.46 µM); MBC (Moraxella catarrhalis [27]): 2 µg/mL (≈ 2.46 µM); Ratio (Moraxella catarrhalis [28]): 1
CC[C@H]1OC(=O)[C@@](C)(F)C(=O)[C@H](C)[C@@H](O[C@@H]2O[C@H](C)C[C@H](N(C)C)[C@H]2O)[C@](C)(OC)C[C@@H](C)/C(=N\OC/C=C/c2cncc(C(N)=O)c2)[C@H](C)[C@H]2OC(=O)O[C@@]21C | 0.062 (≈ 0.0768 µM) | 0.125 (≈ 0.155 µM) | 0.25 (≈ 0.31 µM) | 0.5 (≈ 0.62 µM) | 2 | 0.062 (≈ 0.0768 µM) | > 0.5 | >8 | 16 (≈ 19.8 µM) | 16 (≈ 19.8 µM) | 1 | > 256 | > 256 | 1 (≈ 1.24 µM) | 8 (≈ 9.91 µM) | 8 | 0.062 (≈ 0.0768 µM) | 16 (≈ 19.8 µM) | 32 (≈ 39.7 µM) | 2 | MBC (Moraxella catarrhalis [18]): > 0.5 µg/mL; Ratio (Moraxella catarrhalis [19]): >8
CC[C@H]1OC(=O)[C@H](C)C(=O)[C@H](C)[C@@H](O[C@@H]2O[C@H](C)C[C@H](N(C)C)[C@H]2O)[C@](C)(OC)C[C@@H](C)C(=O)[C@H](C)[C@H]2N(CCCCn3cnc(-c4cccnc4)c3)C(=O)O[C@]12C [TELITHROMYCIN] | 0.016 to 0.031 (≈ 0.0197 to 0.0382 µM) | 0.031 (≈ 0.0382 µM) | 0.25 (≈ 0.308 µM) | 0.5 to 1 (≈ 0.616 to 1.23 µM) | 2 - 4 | 0.062 (≈ 0.0764 µM) | 0.125 to 0.5 (≈ 0.154 to 0.616 µM) | 2 - 8 | 1 to 4 (≈ 1.23 to 4.93 µM) | 4 (≈ 4.93 µM) | 1 - 4 | > 256 | > 256 | 0.125 to 0.25 (≈ 0.154 to 0.308 µM) | 1 to 2 (≈ 1.23 to 2.46 µM) | >8 | 0.125 (≈ 0.154 µM) | 8 (≈ 9.85 µM) | 8 (≈ 9.85 µM) | 1 | Ratio (Streptococcus pneumoniae [29]): 1 - 2; MIC (Streptococcus pyogenes [23]): 0.5 µg/mL (≈ 0.616 µM); MBC (Streptococcus pyogenes [24]): 1 µg/mL (≈ 1.23 µM); Ratio (Streptococcus pyogenes [25]): 2; MIC (Moraxella catarrhalis [26]): 0.25 µg/mL (≈ 0.308 µM); MBC (Moraxella catarrhalis [27]): 0.25 µg/mL (≈ 0.308 µM); Ratio (Moraxella catarrhalis [28]): 1; MBC (Moraxella catarrhalis [18]): 0.5 µg/mL (≈ 0.616 µM); Ratio (Moraxella catarrhalis [19]): 4
CC[C@H]1OC(=O)[C@H](C)C(=O)[C@H](C)[C@@H](O[C@@H]2O[C@H](C)C[C@H](N(C)C)[C@H]2O)[C@](C)(OC)C[C@@H](C)/C(=N\OC/C=C/c2cnc3ccccc3c2)[C@H](C)[C@H]2OC(=O)O[C@@]21C | ≤ 0.008 | 0.031 (≈ 0.0389 µM) | 0.25 (≈ 0.314 µM) | 0.5 (≈ 0.628 µM) | 2 | 0.062 (≈ 0.0779 µM) | > 0.5 | >8 | 8 to 32 (≈ 10.1 to 40.2 µM) | 64 to 128 (≈ 80.4 to 161 µM) | >=4 - 8 | 32 (≈ 40.2 µM) | 32 (≈ 40.2 µM) | 1 (≈ 1.26 µM) | > 8 | >8 | – | 64 (≈ 80.4 µM) | > 256 | >4 | Ratio (Streptococcus pneumoniae [29]): >=4; MIC (Streptococcus pyogenes [23]): 0.016 µg/mL (≈ 0.0201 µM); MBC (Streptococcus pyogenes [24]): > 0.125 µg/mL; Ratio (Streptococcus pyogenes [25]): >8; Ratio (Staphylococcus aureus [30]): 1; MIC (Moraxella catarrhalis [26]): 2 µg/mL (≈ 2.51 µM); MBC (Moraxella catarrhalis [27]): 2 µg/mL (≈ 2.51 µM); Ratio (Moraxella catarrhalis [28]): 1
